# Test results taken from PubChem BioAssay (NCI).
#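 48-hour exposure; five concentrations; linearly interpolated endpoints. TGI: concentration producing complete growth inhibition.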
# How the values were obtained:
# Test in all cases: NCI anticancer screen, dose series, 48 h
# SR leukemia = test system: SR leukemia
# COLO 205 colon = test system: COLO 205 colon
# HCT-15 colon = test system: HCT-15 colon
# MALME-3M melanoma = test system: MALME-3M melanoma
# HS 578T breast = test system: HS 578T breast
# MDA-MB-435 = test system: MDA-MB-435
# SK-MEL-2 melanoma = test system: SK-MEL-2 melanoma
# DU-145 prostate = test system: DU-145 prostate
# SN12C renal = test system: SN12C renal
# SF-268 CNS = test system: SF-268 CNS
# MOLT-4 leukemia = test system: MOLT-4 leukemia
# BT-549 breast = test system: BT-549 breast
# MDA-N = test system: MDA-N
# K-562 leukemia = test system: K-562 leukemia
# NCI-H226 lung = test system: NCI-H226 lung
# CAKI-1 renal = test system: CAKI-1 renal
SMILES,TGI (SR leukemia) [µM],TGI (COLO 205 colon) [µM],TGI (HCT-15 colon) [µM],TGI (MALME-3M melanoma) [µM],TGI (HS 578T breast) [µM],TGI (MDA-MB-435) [µM],TGI (SK-MEL-2 melanoma) [µM],TGI (DU-145 prostate) [µM],TGI (SN12C renal) [µM],TGI (SF-268 CNS) [µM],TGI (MOLT-4 leukemia) [µM],TGI (BT-549 breast) [µM],TGI (MDA-N) [µM],TGI (K-562 leukemia) [µM],TGI (NCI-H226 lung) [µM],TGI (CAKI-1 renal) [µM]
CCCCCCCCCC(=O)NCCc1c[nH]c2ccc(OC)cc12,> 100,55.7,36.2,34.3,42.8,60.3,30.5,42.1,33.1,34.2,> 100,32.9,35.5,> 100,42.1,65.6
O=C(NC(=O)c1ccccc1)OC(c1ccccc1)C1CO1 (stereo not drawn),–,> 100,> 100,> 100,> 100,> 100,> 100,> 100,> 100,> 100,> 100,> 100,> 100,> 100,> 100,> 100
CCCCC(O)(c1ccccc1)C(O)(c1ccccc1)c1c(F)c(F)c(F)c(F)c1F (stereo not drawn),76.7,–,30.1,32.6,–,> 100,–,> 100,31.1,53.1,45.6,> 100,39.3,82.4,86,–
Cc1occc1C(=S)Nc1ccc(Cl)c(C(=O)OCC(C)C)c1,–,39.9,36.1,36.2,62.6,32.8,40.2,39.8,36.3,42.5,44.8,33.2,47.8,55.2,30.4,37.8
CCOc1ccc(N2C(=O)NC3(c4ccccc4)N(C)C(=O)N(C)C23c2ccccc2)cc1 (stereo not drawn),> 100,> 100,–,> 100,–,> 100,> 100,> 100,> 100,–,> 100,> 100,> 100,> 100,> 100,> 100
Cc1n[nH]c(=O)n1Nc1ccccc1,> 100,> 100,> 100,> 100,> 100,> 100,–,> 100,> 100,> 100,> 100,> 100,> 100,> 100,> 100,> 100
CC1=NN(c2cccc(Cl)c2)C2(C1=Cc1cccs1)C(Cl)C(=O)N2c1nc2ccccc2s1 (stereo not drawn),48.5,–,51.7,–,68.7,> 100,36.5,> 100,–,47.9,57.1,49.4,48.1,72.4,53.5,84.5
COc1ccc(N=C(CS(=O)c2ccc(C)cc2)C(F)(F)F)cc1 (stereo not drawn),> 100,> 100,> 100,> 100,–,> 100,> 100,> 100,> 100,–,> 100,> 100,> 100,> 100,> 100,> 100
CC(=O)Nc1ncc2c(n1)-c1ccccc1OC2c1ccccc1 (stereo not drawn),> 100,> 100,> 100,–,55.4,> 100,> 100,> 100,> 100,63.5,> 100,> 100,> 100,–,52.1,68.3
COc1ccc(C[n+]2cccc(O)c2)cc1,> 100,–,–,> 100,> 100,> 100,> 100,> 100,> 100,> 100,> 100,> 100,> 100,> 100,> 100,–
CCCC(=O)N(C)N=Nc1ccc(C(=O)OCC)cc1,> 100,–,> 100,> 100,> 100,–,> 100,> 100,> 100,> 100,> 100,> 100,> 100,> 100,> 100,> 100
OCC1C2CCC3(OCCO3)C12 (stereo not drawn),> 100,> 100,> 100,> 100,–,> 100,> 100,> 100,> 100,> 100,> 100,35.6,> 100,> 100,> 100,> 100
CC1=NNC(=O)C1C1CC(c2c[nH]c3ccccc23)=NN(c2ccccc2)C1=O (stereo not drawn),–,> 100,> 100,> 100,> 100,> 100,> 100,> 100,> 100,> 100,> 100,> 100,> 100,> 100,> 100,> 100
CCN(CC)C(=S)/N=C(\SC(=S)N(CC)CC)c1ccccc1,–,72.5,> 100,> 100,> 100,> 100,> 100,> 87.9,> 100,> 100,> 74.8,> 100,> 73.2,> 100,> 100,> 100
Cc1ccc(C(=O)O)c(/C=C2\Cc3cc(C)cc(C)c3C2=O)c1,> 100,–,> 100,> 100,> 100,–,> 100,> 100,> 100,> 100,> 100,> 100,> 100,> 100,> 100,> 100
C=C1C2C[C@@H]3O[C@H]4C[C@H]5O[C@@]6(C[C@@H]7O[C@]8(C[C@H](C)[C@@H]9O[C@@H]%10CC(C=O)O[C@@H]%10C[C@@H]9O8)C[C@H](C)[C@@H]7O6)C[C@H]5O[C@H]4[C@H](C)[C@H]3OC(=O)C[C@H]3CC[C@@H]4OC5[C@H]6O[C@]7(CC[C@H]8CC(=C)[C@H](CC[C@@H](C[C@H]1C)O2)O8)CC6O[C@@H]5[C@@H](O7)[C@H]4O3 (stereo partly drawn),> 1,0.00103,0.00609,–,< 0.0001,< 0.0001,–,> 1,> 1,–,> 1,< 0.0001,< 0.0001,> 1,0.0119,> 1
CC(C)(C)C(O)CC(O)(C(F)(F)F)C(F)(F)F (stereo not drawn),> 100,> 100,> 100,> 100,> 100,> 100,> 100,> 100,> 100,> 100,> 100,–,> 100,> 100,> 100,> 100
COc1ccc(C(=O)N2CCN(c3ccc4c(c3)OCC(=O)N4)CC2)cc1OC,> 100,> 100,> 100,> 100,> 100,> 100,> 100,> 100,> 100,> 100,> 100,> 100,> 100,–,> 100,–
CC(=O)c1cc2c(s1)C(=O)c1ccsc1C2=O,–,40.5,0.367,0.332,0.561,0.226,1.37,0.743,0.352,1.01,2.17,0.356,0.197,3.57,3.75,4.29
COc1ccc(C2CC(c3ccc(NS(=O)(=O)c4cc([N+](=O)[O-])ccc4C)cc3)=NN2S(=O)(=O)c2cc([N+](=O)[O-])ccc2C)cc1 (stereo not drawn),> 100,> 100,> 100,> 100,–,> 100,> 100,> 100,> 100,79.9,> 100,> 100,> 100,> 100,> 100,> 100
C/C(=N\Nc1nc2ccccc2o1)c1ncccn1,0.228,15.8,20.3,–,> 61,23.4,13.6,> 50.8,15.2,> 72.2,0.0282,34.8,> 54.5,–,0.64,1.57
COc1ccc(-c2[nH]c(-c3ccc(OC)cc3)c(-c3ccccn3)c2-c2ccccn2)cc1,> 100,61.1,> 100,> 100,> 100,> 100,–,> 100,> 100,> 100,> 100,99.9,> 100,84.5,> 100,> 100
O=C1C(Cl)=C(N2CCN(CCOCCO)CC2)C(=O)c2ccccc21,8.51,28.7,24.4,15.2,39.2,12.8,23,34,28.8,30.3,5.99,–,4.17,> 21.7,31,29.5
Cc1c2oc3c(C)cnc(C(=O)NC4C(=O)NC(C(C)C)C(=O)N5CCCC5C(=O)N(C)CC(=O)N(C)C(C(C)C)C(=O)OC4C)c3nc-2c(C(=O)NC2C(=O)NC(C(C)C)C(=O)N3CCCC3C(=O)N(C)CC(=O)N(C)C(C(C)C)C(=O)OC2C)c(N)c1=O (stereo not drawn),–,14.2,> 75,16.6,19.5,16.7,10.4,> 75,> 70.1,24.4,0.675,33.5,16.9,2.36,23.8,73
Cc1ccc(NC(=O)CC(=O)N2N=C(N3CCCCC3)CC2c2ccccc2)cc1 (stereo not drawn),> 100,> 100,> 100,> 100,> 100,> 100,> 100,> 100,> 100,> 100,> 100,> 100,> 100,–,> 100,> 100
N#CC(c1ccccc1)N(CCc1ccccc1)C(=O)c1ccc(C(=O)N(CCc2ccccc2)C(C#N)c2ccccc2)cc1 (stereo not drawn),–,55.6,37.8,39.3,39.1,58,48.1,> 100,38.3,55.2,–,44.3,65.1,67.4,33.8,> 100
Cc1cc(O)c2c(c1)C(C1OC(CO)C(O)C(O)C1O)c1cc(O)cc(O)c1C2=O (stereo not drawn),> 100,> 100,> 100,> 100,–,> 100,–,> 100,> 100,> 100,> 100,> 100,> 100,> 100,> 100,–
CC(O)CC(=O)CO[C@H]1[C@H](O)[C@@H](O)[C@@H](O)[C@@H]2NC(=O)c3c(cc4c(c3O)OCO4)[C@H]21 (stereo partly drawn),0.125,0.135,–,0.0529,0.153,0.175,0.261,0.0818,0.784,0.0626,0.321,0.482,0.446,4.14,1.49,–
Cc1cccc2c(N)c3cccc(C(=O)NCC[N+](C)(C)Cc4ccc(S(C)(=O)=O)cc4)c3nc12,–,> 100,> 100,> 100,> 100,> 100,> 100,> 100,> 100,> 100,–,> 100,> 100,> 52.2,> 100,> 100
NC1=NCC(CN2CCCCC2)O1 (stereo not drawn),> 100,> 100,> 100,> 100,> 100,> 100,–,–,> 100,> 100,> 100,> 100,> 100,> 100,> 100,> 100
